This note sets out measurements from PubChem BioAssay (NCI).

Several values for one entry are separate records, joined by “and”; a condition that tells them apart may be missing. Identical values can stand only once.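 All cell lines were grown in 96-well plates and treated with compound for 48 hours. GI50: concentration for 50% inhibition of growth. TGI denotes the concentration required for complete inhibition of growth.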

Test systems include U251 CNS; DU-145 prostate; COLO 205 colon; HCT-15 colon; TK-10 renal; RPMI-8226 leukemia; HCT-116 colon; T-47D breast; HT29 colon; OVCAR-3 ovarian.
Common to all, as to test: NCI anticancer screen, dose series, 48 h

For `CCN(CC)Cc1cc2[nH]c3c4ccc(Cl)cc4ncc3c2cc1OC`, the GI50 with U251 CNS is 2.18 µM and 2.16 µM; with DU-145 prostate, 3 µM and 2.46 µM; in the test on COLO 205 colon it was 3.69 µM and 1.79 µM; in the test with HCT-15 colon it was 2.05 µM and 2.46 µM; in the test on TK-10 renal, 5.4 µM and 2.62 µM; in the test on RPMI-8226 leukemia, 1.26 µM and 1.87 µM. The GI50 in the test on HCT-116 colon was 1.85 µM and 1.65 µM; with T-47D breast, 16.5 µM and 17.4 µM; with HT29 colon, 1.78 µM and 1.91 µM; in the test with OVCAR-3 ovarian it was 1.89 µM and 2.02 µM. In addition, the TGI with U251 CNS was 5.97 µM and 5.39 µM; in the test on DU-145 prostate it was 9.18 µM and 6.38 µM; in the test with COLO 205 colon, 8.54 µM and 3.26 µM; with HCT-15 colon it was 8.66 µM and 6.94 µM; in the test on TK-10 renal, 11.2 µM and 5.62 µM; in the test on RPMI-8226 leukemia, 5.09 µM and 4.56 µM. Further, the TGI with HCT-116 colon was 5.92 µM and 3.15 µM; in the test with T-47D breast, 31.7 µM and 33.6 µM; with HT29 colon, 5.6 µM and 4.82 µM; with OVCAR-3 ovarian, 3.78 µM and 4.29 µM.

For the compound `Nc1ncnc2c1ncn2C1OC(CO)C(O)C1N` (stereo not given), the TGI in the test on U251 CNS, in the test with DU-145 prostate, in the test on COLO 205 colon, with HCT-15 colon, with TK-10 renal and with RPMI-8226 leukemia was > 100 µM in each case. In addition, the TGI in the test on HCT-116 colon, in the test on T-47D breast, in the test on HT29 colon and in the test with OVCAR-3 ovarian was > 100 µM throughout.

For the compound `O=C1NC(=NCCCc2ccccc2)S/C1=C\c1ccc2ncccc2c1`, the GI50 in the test on U251 CNS was 2.9 µM; in the test on DU-145 prostate, 5.89 µM; in the test on COLO 205 colon, 6.98 µM; in the test with HCT-15 colon, 2.9 µM; with TK-10 renal, 4.15 µM; with RPMI-8226 leukemia, 5.52 µM. Further, the GI50 was 3.6 µM with HCT-116 colon, 4.73 µM with T-47D breast, 6.55 µM with HT29 colon and 4.81 µM in the test with OVCAR-3 ovarian. Further, the TGI was 10.3 µM with U251 CNS; 18 µM in the test on DU-145 prostate; > 20.7 µM in the test with COLO 205 colon; > 25 µM in the test with HCT-15 colon; 10.5 µM with TK-10 renal; 14.6 µM with RPMI-8226 leukemia. Moreover, the TGI with HCT-116 colon was 14.1 µM; with T-47D breast, 12.3 µM; in the test on HT29 colon it was > 21.4 µM; in the test with OVCAR-3 ovarian, 10.6 µM.
